{
  "source": "the NIST ThermoML archive (doi:10.1021/je900722m)",
  "conditions": "101.33 kPa, Liquid",
  "note": "Numbers after ± are expanded uncertainties.",
  "data": [
    {"smiles": "CC(C)CO", "note": "[2-methyl-1-propanol]", "values": [
      {"measurement": "mass density", "setting": "303.15 K", "value": "794.064 ± 0.46", "unit": "kg/m3"},
      {"measurement": "viscosity", "setting": "303.15 K", "value": "2.649 ± 0.045", "unit": "mPa·s"},
      {"measurement": "mass density", "setting": "308.15 K", "value": "790.123 ± 0.46", "unit": "kg/m3"},
      {"measurement": "viscosity", "setting": "308.15 K", "value": "2.28 ± 0.039", "unit": "mPa·s"},
      {"measurement": "mass density", "setting": "313.15 K", "value": "786.12 ± 0.47", "unit": "kg/m3"},
      {"measurement": "viscosity", "setting": "313.15 K", "value": "1.965 ± 0.034", "unit": "mPa·s"},
      {"measurement": "mass density", "setting": "318.15 K", "value": "782.061 ± 0.48", "unit": "kg/m3"},
      {"measurement": "viscosity", "setting": "318.15 K", "value": "1.692 ± 0.03", "unit": "mPa·s"},
      {"measurement": "mass density", "setting": "323.15 K", "value": "777.932 ± 0.48", "unit": "kg/m3"},
      {"measurement": "viscosity", "setting": "323.15 K", "value": "1.482 ± 0.026", "unit": "mPa·s"},
      {"measurement": "mass density", "setting": "328.15 K", "value": "773.732 ± 0.49", "unit": "kg/m3"},
      {"measurement": "viscosity", "setting": "328.15 K", "value": "1.268 ± 0.023", "unit": "mPa·s"},
      {"measurement": "mass density", "setting": "333.15 K", "value": "769.448 ± 0.5", "unit": "kg/m3"},
      {"measurement": "viscosity", "setting": "333.15 K", "value": "1.116 ± 0.02", "unit": "mPa·s"},
      {"measurement": "mass density", "setting": "338.15 K", "value": "765.079 ± 0.51", "unit": "kg/m3"},
      {"measurement": "viscosity", "setting": "338.15 K", "value": "0.9851 ± 0.019", "unit": "mPa·s"},
      {"measurement": "mass density", "setting": "343.15 K", "value": "760.611 ± 0.51", "unit": "kg/m3"},
      {"measurement": "viscosity", "setting": "343.15 K", "value": "0.8767 ± 0.017", "unit": "mPa·s"}
    ]},
    {"smiles": "CCCCO", "note": "[butan-1-ol]", "values": [
      {"measurement": "mass density", "setting": "303.15 K", "value": "802.213 ± 0.44", "unit": "kg/m3"},
      {"measurement": "viscosity", "setting": "303.15 K", "value": "2.296 ± 0.039", "unit": "mPa·s"},
      {"measurement": "mass density", "setting": "308.15 K", "value": "798.343 ± 0.45", "unit": "kg/m3"},
      {"measurement": "viscosity", "setting": "308.15 K", "value": "2.025 ± 0.035", "unit": "mPa·s"},
      {"measurement": "mass density", "setting": "313.15 K", "value": "794.425 ± 0.45", "unit": "kg/m3"},
      {"measurement": "viscosity", "setting": "313.15 K", "value": "1.795 ± 0.031", "unit": "mPa·s"},
      {"measurement": "mass density", "setting": "318.15 K", "value": "790.465 ± 0.46", "unit": "kg/m3"},
      {"measurement": "viscosity", "setting": "318.15 K", "value": "1.595 ± 0.028", "unit": "mPa·s"},
      {"measurement": "mass density", "setting": "323.15 K", "value": "786.456 ± 0.47", "unit": "kg/m3"},
      {"measurement": "viscosity", "setting": "323.15 K", "value": "1.417 ± 0.025", "unit": "mPa·s"},
      {"measurement": "mass density", "setting": "328.15 K", "value": "782.399 ± 0.47", "unit": "kg/m3"},
      {"measurement": "viscosity", "setting": "328.15 K", "value": "1.271 ± 0.023", "unit": "mPa·s"},
      {"measurement": "mass density", "setting": "333.15 K", "value": "778.281 ± 0.48", "unit": "kg/m3"},
      {"measurement": "viscosity", "setting": "333.15 K", "value": "1.138 ± 0.021", "unit": "mPa·s"},
      {"measurement": "mass density", "setting": "338.15 K", "value": "774.098 ± 0.49", "unit": "kg/m3"},
      {"measurement": "viscosity", "setting": "338.15 K", "value": "1.028 ± 0.019", "unit": "mPa·s"},
      {"measurement": "mass density", "setting": "343.15 K", "value": "769.845 ± 0.49", "unit": "kg/m3"},
      {"measurement": "viscosity", "setting": "343.15 K", "value": "0.9306 ± 0.018", "unit": "mPa·s"}
    ]},
    {"smiles": "CC(C)(C)O", "note": "[2-methylpropan-2-ol]", "values": [
      {"measurement": "mass density", "setting": "308.15 K", "value": "770.365 ± 0.5", "unit": "kg/m3"},
      {"measurement": "viscosity", "setting": "308.15 K", "value": "2.69 ± 0.046", "unit": "mPa·s"},
      {"measurement": "mass density", "setting": "313.15 K", "value": "765.07 ± 0.51", "unit": "kg/m3"},
      {"measurement": "viscosity", "setting": "313.15 K", "value": "2.142 ± 0.037", "unit": "mPa·s"},
      {"measurement": "mass density", "setting": "318.15 K", "value": "759.675 ± 0.52", "unit": "kg/m3"},
      {"measurement": "viscosity", "setting": "318.15 K", "value": "1.737 ± 0.03", "unit": "mPa·s"},
      {"measurement": "mass density", "setting": "323.15 K", "value": "754.193 ± 0.53", "unit": "kg/m3"},
      {"measurement": "viscosity", "setting": "323.15 K", "value": "1.428 ± 0.025", "unit": "mPa·s"},
      {"measurement": "mass density", "setting": "328.15 K", "value": "748.621 ± 0.54", "unit": "kg/m3"},
      {"measurement": "viscosity", "setting": "328.15 K", "value": "1.196 ± 0.022", "unit": "mPa·s"},
      {"measurement": "mass density", "setting": "333.15 K", "value": "742.954 ± 0.55", "unit": "kg/m3"},
      {"measurement": "viscosity", "setting": "333.15 K", "value": "1.016 ± 0.019", "unit": "mPa·s"},
      {"measurement": "mass density", "setting": "338.15 K", "value": "737.19 ± 0.56", "unit": "kg/m3"},
      {"measurement": "viscosity", "setting": "338.15 K", "value": "0.8734 ± 0.017", "unit": "mPa·s"},
      {"measurement": "mass density", "setting": "343.15 K", "value": "731.313 ± 0.56", "unit": "kg/m3"},
      {"measurement": "viscosity", "setting": "343.15 K", "value": "0.7603 ± 0.016", "unit": "mPa·s"}
    ]},
    {"smiles": "CCC(C)O", "note": "(stereo not given) [butan-2-ol]", "values": [
      {"measurement": "mass density", "setting": "303.15 K", "value": "798.351 ± 0.48", "unit": "kg/m3"},
      {"measurement": "viscosity", "setting": "303.15 K", "value": "2.607 ± 0.045", "unit": "mPa·s"},
      {"measurement": "mass density", "setting": "308.15 K", "value": "794.052 ± 0.48", "unit": "kg/m3"},
      {"measurement": "viscosity", "setting": "308.15 K", "value": "2.163 ± 0.037", "unit": "mPa·s"},
      {"measurement": "mass density", "setting": "313.15 K", "value": "789.658 ± 0.49", "unit": "kg/m3"},
      {"measurement": "viscosity", "setting": "313.15 K", "value": "1.84 ± 0.032", "unit": "mPa·s"},
      {"measurement": "mass density", "setting": "318.15 K", "value": "785.159 ± 0.5", "unit": "kg/m3"},
      {"measurement": "viscosity", "setting": "318.15 K", "value": "1.557 ± 0.028", "unit": "mPa·s"},
      {"measurement": "mass density", "setting": "323.15 K", "value": "780.552 ± 0.51", "unit": "kg/m3"},
      {"measurement": "viscosity", "setting": "323.15 K", "value": "1.333 ± 0.024", "unit": "mPa·s"},
      {"measurement": "mass density", "setting": "328.15 K", "value": "775.832 ± 0.51", "unit": "kg/m3"},
      {"measurement": "viscosity", "setting": "328.15 K", "value": "1.151 ± 0.021", "unit": "mPa·s"},
      {"measurement": "mass density", "setting": "333.15 K", "value": "770.993 ± 0.52", "unit": "kg/m3"},
      {"measurement": "viscosity", "setting": "333.15 K", "value": "1.002 ± 0.019", "unit": "mPa·s"},
      {"measurement": "mass density", "setting": "338.15 K", "value": "766.038 ± 0.53", "unit": "kg/m3"},
      {"measurement": "viscosity", "setting": "338.15 K", "value": "0.8779 ± 0.017", "unit": "mPa·s"},
      {"measurement": "mass density", "setting": "343.15 K", "value": "760.962 ± 0.54", "unit": "kg/m3"},
      {"measurement": "viscosity", "setting": "343.15 K", "value": "0.7769 ± 0.016", "unit": "mPa·s"}
    ]}
  ]
}
